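Briefly, cells in 96-well plates were exposed to five compound concentrations for 48 h, and endpoints were estimated by linear interpolation. Here, GI50 denotes the concentration required for 50% inhibition of growth.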 The source made the active and inactive calls. Cut-off read from the data, not from the text of the source: active = GI50 up to about 1.1 µM and inactive = higher.
What was measured:
Test in all cases: NCI tumour cell line growth inhibition, 48 h
Hs-578T = test system: Hs-578T
MDA-MB-435 = test system: MDA-MB-435
DMS-273 = test system: DMS-273
KM-20L2 = test system: KM-20L2
SNB-78 = test system: SNB-78
RXF 631 = test system: RXF 631
DLD-1 = test system: DLD-1
HOP-18 = test system: HOP-18
LXFL 529 = test system: LXFL 529

| Compound | GI50 (Hs-578T) | GI50 (MDA-MB-435) | further results |
| --- | --- | --- | --- |
| Cn1c(=O)cc(NCc2ccc(Cl)cc2)[nH]c1=O | 18.8 µM (inactive) | > 100 µM (inactive) | – |
| O/N=C1/CCCc2nonc21 | > 100 µM (inactive) | > 100 µM (inactive) | – |
| CN(C)C(=S)/N=c1\ss/c(=N\C(=S)N(C)C)n1-c1ccc2c(c1)OCO2 | – | – | GI50 (DMS-273): > 100 µM (inactive); GI50 (KM-20L2): > 100 µM (inactive) |
| COC(=O)C(CC(=O)c1c[nH]c2ccccc12)c1c[nH]c2ccccc12 (configuration not stated) | – | – | GI50 (SNB-78): 22.2 µM (inactive); GI50 (DMS-273): 13.5 µM (inactive); GI50 (RXF 631): 15.8 µM (inactive); GI50 (KM-20L2): 17.9 µM (inactive); GI50 (DLD-1): 30.8 µM (inactive) |
| CSc1nc(SC)c2c(C)cn(Cc3ccccc3)c2n1 | > 100 µM (inactive) | 33.2 µM (inactive) | – |
| Cc1ccc(S(=O)(=O)NC(=O)NC(Cc2ccc(O)cc2)C(=O)O)cc1 (configuration not stated) | > 100 µM (inactive) | – | – |
| COc1cc2nc(-c3cccs3)nc(Nc3cccc([N+](=O)[O-])c3)c2cc1OC | 26.9 µM (inactive) | 17 µM (inactive) | – |
| O=C1/C(=C\c2ccco2)Oc2ccccc21 | > 100 µM (inactive) | > 100 µM (inactive) | – |
| Cc1ccc2c(n1)C(=O)C=CC2=O | 30.8 µM (inactive) | 17.2 µM (inactive) | – |
| COc1ccccc1N1CCN(CCCNC(=O)c2cc(Cl)c(N)c(Cl)c2)CC1 | 67.1 µM (inactive) | 40.2 µM (inactive) | – |
| Cc1ccc(S(=O)(=O)/N=C2/N(C)CCCS2(=O)=O)cc1 | > 100 µM (inactive) | > 100 µM (inactive) | – |
| COc1cc2c[n+](C)c3c4cc(OC)c(OC(C)C)cc4ccc3c2cc1OC | – | – | GI50 (SNB-78): 50 µM (inactive); GI50 (DMS-273): 27.2 µM (inactive); GI50 (KM-20L2): 62.7 µM (inactive); GI50 (HOP-18): 49.7 µM (inactive); GI50 (DLD-1): > 100 µM (inactive); GI50 (LXFL 529): 7.35 µM (inactive) |
| CC(C)(C)/C(O)=C\c1nc2ccc(C(F)(F)F)cc2[nH]c1=O | > 100 µM (inactive) | > 100 µM (inactive) | – |
| CCC(CCN)(CCN)[N+](=O)[O-] | > 100 µM (inactive) | > 100 µM (inactive) | – |
| CN(C)CCNC(=O)C(C)(C)Oc1ccc(C(=O)c2ccc(Cl)cc2)cc1Cl | 6.14 µM (inactive) | 5.6 µM (inactive) | – |
| O=C1C[C@@H](c2ccccc2)O[C@@H](c2ccccc2)C1 | > 100 µM (inactive) | > 100 µM (inactive) | – |
| CCOC(=O)/C(=C\NC#N)c1nc2ccccc2[nH]1 | – | > 100 µM (inactive) | – |

| Compound | GI50 (Hs-578T) | GI50 (MDA-MB-435) | further results |
| --- | --- | --- | --- |
| C[n+]1c2ccccc2c(CNC(CCC(N)=O)C(=O)O)c2ccccc21 (configuration not stated) | 5.68 µM (inactive) | 2.55 µM (inactive) | GI50 (SNB-78): 6.5 µM (inactive); GI50 (DMS-273): 1.21 µM (inactive); GI50 (KM-20L2): 1.1 µM (active); GI50 (HOP-18): 2.09 µM (inactive); GI50 (DLD-1): 0.475 µM (active); GI50 (LXFL 529): 0.817 µM (active) |
| O=C(CN1CCN(c2ccccn2)CC1)N1CCCn2c1nc1ccccc1c2=O | > 100 µM (inactive) | > 100 µM (inactive) | – |
| CN/C(N)=N/N=C1/C(=O)Nc2ccccc21 | > 100 µM (inactive) | > 100 µM (inactive) | – |
| CCOC(=O)[C@@]12C3C=CC(CC3)[C@]1(C(=O)c1ccccc1)C(=O)C(=O)N2c1ccccc1 (some centres not stated) | – | > 100 µM (inactive) | – |
| NNc1ccccc1Cl | > 100 µM (inactive) | > 100 µM (inactive) | – |
| CCCc1c(OC)c(=O)c2c(O)cc(OC)c3c4c(OC)cc(O)c5c(=O)c(OC)c(CCC)c(c1c23)c54 | – | 1.85 µM (inactive) | – |
| COC(OC)C1OCC(n2cc(F)c(=O)[nH]c2=O)C1O (configuration not stated) | > 100 µM (inactive) | > 100 µM (inactive) | – |
| Cc1ccccc1C(C#N)C(=O)C(=O)Nc1cccc(Cl)c1 (configuration not stated) | – | – | GI50 (SNB-78): > 100 µM (inactive); GI50 (DMS-273): > 100 µM (inactive); GI50 (RXF 631): > 100 µM (inactive); GI50 (KM-20L2): > 100 µM (inactive); GI50 (DLD-1): > 100 µM (inactive) |
| COc1cccc(/C=C2\N=C(c3ccccc3)OC2=O)c1 | 22.5 µM (inactive) | > 100 µM (inactive) | – |
| CCN(CC)c1c(-c2c(OC(C)C)c(=O)c2=O)c(=O)n2ccsc2c1OC(C)=O | 17.8 µM (inactive) | > 100 µM (inactive) | – |
| N=C(N)C(/N=N\c1ccccc1)C(N)=O (configuration not stated) | > 100 µM (inactive) | 83.4 µM (inactive) | – |
| O=S(=O)(O)c1ccc(-c2c3nc(c(-c4ccc(S(=O)(=O)O)cc4)c4ccc([nH]4)c(-c4ccc(S(=O)(=O)O)cc4)c4nc(c(-c5ccc(S(=O)(=O)O)cc5)c5ccc2[nH]5)C=C4)C=C3)cc1 | 13.9 µM (inactive) | 61 µM (inactive) | – |
| COC1[C@@H](OC(C)=O)[C@@H](NC(=O)C(Cl)(Cl)Cl)C(I)[C@@H](N2C(=O)c3ccccc3C2=O)[C@H]1OC (some centres not stated) | – | – | GI50 (SNB-78): > 100 µM (inactive); GI50 (DMS-273): > 100 µM (inactive); GI50 (KM-20L2): > 100 µM (inactive); GI50 (HOP-18): > 100 µM (inactive); GI50 (DLD-1): > 100 µM (inactive); GI50 (LXFL 529): > 100 µM (inactive) |
| OCCCCCNc1nc(O)c2[nH]cnc2n1 | 90.8 µM (inactive) | > 100 µM (inactive) | – |
| OC(c1ccc(Cl)cc1)(c1ccc(Cl)cc1)c1cncnc1 | 25.3 µM (inactive) | 18.3 µM (inactive) | – |
| CN(c1n[n+]2c(-c3ccccc3)csc2s1)c1n[n+]2c(-c3ccccc3)csc2s1 | – | – | GI50 (SNB-78): > 100 µM (inactive); GI50 (DMS-273): > 100 µM (inactive); GI50 (KM-20L2): > 100 µM (inactive); GI50 (HOP-18): > 100 µM (inactive); GI50 (DLD-1): > 100 µM (inactive); GI50 (LXFL 529): 87.3 µM (inactive) |
| COc1ccc(/C=C2\CCC(CCN(C)C)(C3=CCCC3)C2=O)cc1 (configuration not stated) | – | – | GI50 (SNB-78): 21.8 µM (inactive); GI50 (DMS-273): 17.1 µM (inactive); GI50 (KM-20L2): 14.1 µM (inactive); GI50 (HOP-18): 14.1 µM (inactive); GI50 (DLD-1): 26.4 µM (inactive); GI50 (LXFL 529): 16.7 µM (inactive) |

Source: ChEMBL document CHEMBL1201862, “PubChem BioAssay data set” (2004)
